From patent US11591342B2, “Heterocyclic compound, application thereof and pharmaceutical composition comprising same” (SUZHOU SINOVENT PHARMACEUTICALS CO., LTD., priority 2018, dated 2023)

Experiments:
LPA18:2 in mouse plasma = assay: Inhibition of LPA in mouse plasma (plasma LPA18:2 assay, LC-MS/MS); assay type: biochemical, CD1 mice; conditions: fresh CD1 mouse plasma, LPA18:2, 37° C. for 120 min
Procedure: Effect Example 2. Inhibition of LPA in Mouse Plasma by Compounds
20 mM stock solutions of the compounds were prepared with DMSO and then diluted to 1 mM, which was subjected to a serial 3-fold dilution to yield 10 working solutions.
Collection of Fresh Mouse Plasma:
CD1 mice were euthanized by CO2 inhalation. Approximately 1 mL of whole blood was taken by cardiac puncture, with EDTA-K2 for anticoagulation. The blood was centrifuged at 3220 g for 10 min at 4° C. for plasma collection.
Reactions were performed in a 96-well plate, and the samples were tested in duplicate. 1 μL of each working solution was added to 100 μL of plasma, with the final concentrations of […]. 1 μL of DMSO was added to plasma to serve as blank. The samples were incubated in a water bath at 37° C. for 120 min, and 600 μL of 10 μM tolbutamide in methanol was added to terminate the reaction. Tolbutamide also served as an internal standard. After 5 min of vortex mixing, the samples were centrifuged at 3220 g for 45 min at 4° C. to precipitate the protein. 100 μL of the supernatant was transferred to a new plate, diluted with water based on LC-MS response and peak shapes, mixed well and analyzed by LC-MS/MS.
LPA18:2 was quantified using peak area ratio (LPA18:2/internal standard), requiring no standard curve. For test compounds of different concentrations, LPA data was represented by a percentage decrease of LPA: 100-[((LPA peak area ratio of compound)/(LPA peak area ratio of control))×100]. IC50 was calculated using Graphpad Prism 6.0 software.

Autotaxin (ATX) = Autotaxin (ATX) (Homo sapiens (Human), UniProt Q13822); assay: ATX bioactivity assay (Amplex Red / choline oxidase / HRP fluorescence, LPC 16:0 substrate); assay type: biochemical; conditions: 30 min room temperature
Procedure: Effect Example 1 Bioactivity Assay
Preparation and Treatment
Stock Solution Preparation
A 10 mM DMSO stock solution was formulated for each compound. A 30 mM DMSO stock solution was formulated for positive control HA130.
The DMSO stock solutions were stored at room temperature in a desiccator for a short period of time or at −20° C. for a long period of time.
All compounds were serially 3-fold diluted in DMSO from 10 μM to the 10th concentration.
A 1000× positive control (10 mM, HA130) and a 1000× negative control (100% DMSO) were prepared.
The plates were shaken for 5 min.
Preparation of 1× Reaction Buffer:
5× reaction buffer and cold water were mixed well in a volume ratio of 1:4.
Preparation of 20 U/mL Choline Oxidase Stock Solution:
1 tube of choline oxide in a kit was dissolved in 1× reaction buffer. The aliquots were frozen at −20° C.
Preparation of 200 U/mL Horseradish Peroxidase (HRP) Stock Solution:
1 tube of HRP in a kit was dissolved in 1 mL of 1× reaction buffer. The aliquots were frozen at −20° C.
Preparation of 20 mM Amplex® Red Reagent (for Detection) Stock Solution
Amplex Red reagent and DMSO were equilibrated at room temperature. 1 tube of Amplex Red reagent in a kit was dissolved in 200 μL of DMSO.
a) 2×ATX ([…]), 2×HRP ([…]), 2× choline oxidase (0.2 U/mL) were added to 1× reaction buffer.
b) 20 μL of the reaction mixture was added to the plate (PE, 6007270) (refer to step a).
c) 40 nL of diluent was added to the plate using Echo (refer to “Preparation”).
d) 2×LPC (16:0) (60 mM) and 2× Amplex® Red ([…]) were prepared using 1× reaction buffer.
e) 20 μL of the mixture was added to the plate (refer to step d).
f) The plate was shaken for 30 s and allowed to stand at room temperature for 30 min.
g) The plate was examined using Envision, and the procedure was as follows: Excitation at 530 nm; and Emission at 590 nm.
Formula for Calculating % Inhibition (Percent Inhibition Rate) as Follows:
FLU: Fluorescence (fluorescence reading)
FLUpositive: Average fluorescence value in positive control wells (10 μM HA130) in the plate.
FLUvehicle: Average fluorescence value in negative control wells (0.1% DMSO) in the plate.
Calculation of IC50 and Dose-Response Curve:
IC50 of the compounds was calculated via a non-linear regression line (dose-variable slope) fitted using % inhibition and log of compound concentration. The software used was Graphpad 5.0. Y=Bottom+(Top−Bottom)/(1+10^((Log IC50−X)×Hill Slope))
X: log of inhibitor concentration

CYP3A4 = CYP3A4 (Homo sapiens (Human), UniProt P08684); assay: Time-dependent inhibition of CYP3A4 (TDI assay, human liver microsomes); assay type: in vitro ADME; conditions: for CYP3A4 TDI % @ 10 μM: human liver microsomes, Midazolam substrate, 30 min with NADPH vs 0 min; for time-dependent inhibition on CYP3A4 (conclusion): conclusion drawn from Table 3, 10 μM
Procedure: Effect Example 3. Time-Dependent Inhibition of CYP3A4
1. Preheating potassium phosphate buffer (K-buffer), pH 7.4: 100 mM potassium phosphate buffer (K-buffer) was prepared by mixing 9.5 mL of solution A with 40.5 mL of solution B, diluting to 500 mL with ultrapure water, and then adjusting to pH 7.4 with KOH or H3PO4, wherein the solution A (1M potassium dihydrogenphosphate) was prepared by dissolving 136.5 g of potassium dihydrogenphosphate in […] of ultrapure water.
2. Preparation of human liver microsome suspension (1.3 mg/mL, 1.3×, stock: 20 mg/mL): 100 μL of human liver microsome suspension (20 mg/mL) was added into […] of K-buffer.
3. Preparation of NADPH solution (4.167 mg/mL, 5 mM): 8.3 mg of NADPH was added into 2 mL of buffer.
4. Preparation of substrate solution (1.5× final): 1.5 μL of 10 mM Midazolam was added to 998.5 μL of K-buffer to yield the substrate mixture.
5. Preparation of 100× test compound, reference and blank control solutions: 3 μL of 10 mM stock solution of test compound was added to 27 μL of ACN; 3 μL of positive control stock solution was added to 27 μL of ACN; and 3 μL of DMSO was added to 27 μL of ACN to serve as blank control.
6. Primary preheating system: An NADPH-free system for 0 min incubation: 78 μL of 1.3× human liver microsome solution (step 2) was mixed with 1 μL of the 100× stock solutions of positive control, test compound, or blank control (step 5); A system containing NADPH for 30 min incubation: 78 μL of 1.3× human liver microsome solution (step 2) was mixed with 1 μL of the 100× stock solutions of positive control, test compound, or blank control (step 5).
7. Secondary preheating system: 150 μL of the substrate solution prepared in step 4 was added into a deep well plate together with the NADPH solution from step 3
8. The samples were preheated for 10 min in a 37° C. water bath.
9. Reaction procedure: (1) reaction for 0 min: 21 μL of K-buffer was added to the primary preheating system and mixed well without incubation; 20 μL of the mixture was immediately transferred into the plate of the secondary preheating system; after mixing, the secondary system was incubated in a 37° C. water bath for 15 min, and 60 μL of the reaction mixture was added into 120 μL of acetonitrile containing internal standard to terminate the reaction; and (2) reaction for 30 min: 21 μL of NADPH was added into the primary preheating system for a 30-min incubation after mixing; 20 μL of the mixture was added into the secondary preheating system prior to mixing; the mixture was incubated in a 37° C. water bath for 15 min, and 60 μL of the reaction mixture was added into 120 μL of acetonitrile containing internal standard to terminate the reaction.
10. After termination, the samples were shaken on a shaker at 600 rpm for 10 min and centrifuged at 5594 g for 15 min prior to LC-MS/MS analysis.

Sequence of CYP3A4 (P08684 whole entry): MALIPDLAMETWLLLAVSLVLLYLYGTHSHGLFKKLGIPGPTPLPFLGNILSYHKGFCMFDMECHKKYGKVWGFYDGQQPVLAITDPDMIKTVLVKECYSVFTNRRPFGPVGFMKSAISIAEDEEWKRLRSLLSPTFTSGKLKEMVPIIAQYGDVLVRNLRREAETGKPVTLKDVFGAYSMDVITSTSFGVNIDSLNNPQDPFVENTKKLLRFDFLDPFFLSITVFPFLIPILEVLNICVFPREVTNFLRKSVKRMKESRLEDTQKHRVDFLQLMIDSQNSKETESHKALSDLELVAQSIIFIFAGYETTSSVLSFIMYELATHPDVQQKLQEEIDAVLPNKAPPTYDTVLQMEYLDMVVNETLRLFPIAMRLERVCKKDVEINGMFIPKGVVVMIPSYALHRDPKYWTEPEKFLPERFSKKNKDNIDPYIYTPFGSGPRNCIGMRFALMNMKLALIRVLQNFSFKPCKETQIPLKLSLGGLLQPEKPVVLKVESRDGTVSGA

| SMILES | IC50 (LPA18:2 in mouse plasma) [µM] | IC50 (Autotaxin (ATX)) [µM] | CYP3A4 TDI % @ 10 μM (CYP3A4) [%] | time-dependent inhibition on CYP3A4 (conclusion) (CYP3A4) |
| --- | --- | --- | --- | --- |
| CCn1nc2c(F)cc(N3CCN(CC(=O)N4CC(O)C4)CC3C(F)(F)F)cc2c1N(C)c1nc(-c2ccc(F)cc2)c(C#N)s1 (single isomer, unassigned) [Compound S-0131A, 2-((2-ethyl-7-fluoro-5-(4-(2-(3-hydroxyazetidin-1-yl)-2-oxoethyl)-2-(trifluoromethyl)piperazin-1-yl)-2H-indazol-3-yl)(methyl)amino)-4-(4-fluorophenyl)thiazole-5-carbonitrile] | 0.236 | 0.047 |  |  |
| CCn1nc2c(F)cc(N3CCN(CC(=O)N4CC(O)C4)CC3C(F)(F)F)cc2c1N(C)c1nc(-c2ccc(F)cc2)c(C#N)s1 (single isomer, unassigned) [Compound S-0131B, 2-((2-ethyl-7-fluoro-5-(4-(2-(3-hydroxyazetidin-1-yl)-2-oxoethyl)-2-(trifluoromethyl)piperazin-1-yl)-2H-indazol-3-yl) (methyl)amino)-4-(4-fluorophenyl)thiazole-5-carbonitrile] | 0.091 | 0.036 |  |  |
| CCN(c1nc(-c2ccc(F)cc2)c(C#N)s1)c1c2cc(N3CCN(CC(=O)N4CC(O)C4)CC3C(F)(F)F)cc(F)c2nn1CC (single isomer, unassigned) [Compound S-0134A, 2-(ethyl(2-ethyl-7-fluoro-5-(4-(2-(3-hydroxyazetidin-1-yl)-2-oxoethyl)-2-(trifluoromethyl)piperazin-1-yl)-2H-indazol-3-yl)amino)-4-(4-fluorophenyl)thiazole-5-carbonitrile] | 0.116 | 0.02 |  |  |
| CCc1oc2c(F)cc(N3CCN(CC(=O)N4CC(O)C4)CC3)cc2c1N(C)c1nc(-c2ccc(F)cc2)c(C#N)s1 [Compound S-0024, 2-((2-ethyl-7-fluoro-5-(4-(2-(3-hydroxyazetidin-1-yl)-2-oxoethyl)piperazin-1-yl)benzofuran-3-yl)(methyl)amino)-4-(4-fluorophenyl)thiazole-5-carbonitrile] |  | 0.188 | 4.8 | no time-dependent inhibition on CYP3A4 |
| CCn1nc2c(F)cc(N3CCN(CC(=O)N4CC(O)C4)CC3)cc2c1N(C)c1nc(-c2ccc(F)c(F)c2)c(C#N)s1 [Compound S-0027, 4-(3,4-difluorophenyl)-2-((2-ethyl-7-fluoro-5-(4-(2-(3-hydroxyazetidin-1-yl)-2-oxoethyl)piperazin-1-yl)-2H-indazol-3-yl)(methyl)amino) thiazole-5-carbonitrile] |  | 0.165 | 42.12 | weak time-dependent inhibition on CYP3A4 |
| CCc1oc2ncc(N3CCN(CC(=O)N4CC(O)C4)CC3)cc2c1N(C)c1nc(-c2ccc(F)cc2)c(C#N)s1 [Compound S-0045, 2-((2-ethyl-5-(4-(2-(3-hydroxyazetidin-1-yl)-2-oxoethyl)piperazin-1-yl)furo[2,3-b]pyridin-3-yl)(methyl)amino)-4-(4-fluorophenyl)thiazole-5-carbonitrile] |  | 0.261 | 2.68 | no time-dependent inhibition on CYP3A4 |
| CCc1oc2cnc(N3CCN(CC(=O)N4CC(O)C4)CC3)cc2c1N(C)c1nc(-c2ccc(F)cc2)c(C#N)s1 [Compound S-0046, 2-((2-ethyl-5-(4-(2-(3-hydroxyazetidin-1-yl)-2-oxoethyl)piperazin-1-yl)furo[2,3-c]pyridin-3-yl)(methyl)amino)-4-(4-fluorophenyl)thiazole-5-carbonitrile] |  | > 10 | 10.38 | no time-dependent inhibition on CYP3A4 |
| CCN(c1nc(-c2ccc(F)cc2)c(C#N)s1)c1c2cc(N3CCN(CC(=O)N4CC(O)C4)[C@@H](C(F)(F)F)C3)cc(F)c2nn1CC [Compound S-0135B, (R)-2-(ethyl (2-ethyl-7-fluoro-5-(4-(2-(3-hydroxyazetidin-1-yl)-2-oxoethyl)-3-(trifluoromethyl)piperazin-1-yl)-2H-indazol-3-yl)amino)-4-(4-fluorophenyl)thiazole-5-carbonitrile] | 0.167 |  |  |  |
| CCN(c1nc(-c2ccc(F)cc2)cs1)c1c2cc(N3CCN(CC(=O)N4CC(O)C4)CC3)cc(F)c2nn1CC [Compound S-0149, 2-(4-(2-ethyl-3-(ethyl(4-(4-fluorophenyl)thiazol-2-yl)amino)-7-fluoro-2H-indazol-5-yl)piperazin-1-yl)-1-(3-hydroxyazetidin-1-yl)ethanone] | 0.16 |  |  |  |
| CCN(c1nc(-c2ccc(F)cc2)cs1)c1c2nc(N3CCN(CC(=O)N4CC(O)C4)CC3)cc(C)c2nn1CC [Compound S-0151, 2-(4-(2-ethyl-3-(ethyl(4-(4-fluorophenyl)thiazol-2-yl)amino)-7-methyl-2H-pyrazolo[4,3-b]pyridin-5-yl)piperazin-1-yl)-1-(3-hydroxyazetidin-1-yl) ethanone] | 1.4 |  |  |  |
| CCc1nc2c(C)cc(N3CCN(CC(=O)N4CC(O)C4)CC3)cn2c1N(C)c1nc(-c2ccc(F)cc2)c(C#N)s1 [GLPG1690, reference compound] | 1.06 |  | 21.57 |  |
